The source of these data is US9447066B2, “Salts and crystal forms” (AskAt Inc., priority 2012, dated 2016).

By Cmax is commonly meant the maximum level reached in the sampled fluid or tissue. In general, solubility refers to the dissolved amount per volume that the medium holds. Higher therefore signals much dissolved substance.

“Also recorded” adds a separate entry of the source. Like-named read-outs stand apart in the source and are kept apart here.

Data set [1] in a line: In vivo pharmacokinetic study in Beagle dogs. Conditions: male Beagle dogs; for AUC(0-t): read-out: AUC0-24h; for time-course of mean plasma concentration in comparison with API: oral capsule, FIG. 10. As for the experimental part: In vivo pharmacokinetic study was carried out in Beagle dogs.
Male Beagle dogs were given single oral dose of the test articles by gelatin capsule formulation at a dose of 5 mg/kg. The actual weight of the test articles in the gelatin capsule to be administered to each animal was calculated based on the body weight measured just before the administration.
Following dosing, blood was collected from the external jugular vein of animals at 0, 0.25, 0.5, 1, 2, 4, 6, 8, 12, 24, 48, 72, 96, 120, 144, 168, […], 288, and 360 hour after administration. Approximately 1 mL of blood will be collected into tubes containing heparin-Na.
On the day of administration, food was given to the animals after 6-hour blood sampling.
The drug concentrations in dog plasma were determined with the validated bioanalytical assay procedures. PK parameters were determined with non-compartmental analysis.

The nature of data set [2]: Intrinsic dissolution experiments. In kind it is physicochemical. Conditions: for intrinsic dissolution rate, comparison in words: pH 6.8 buffer and water; for time to plateau / complete dissolution of tablet: pH 6.8 buffer (neutral media). As for the experimental part:
Intrinsic dissolution experiments were performed on the free acid, the meglumine salt, and the potassium salt. The measurements were carried out in pH 6.8 (0.05 M) phosphate buffer and water.
The press used for tablet preparation for intrinsic dissolution rate measurements was a mini-IDR compression system (pION/Heath Scientific). Approximately 11 mg of material was pressed in the cylindrical hole of a passivated stainless steel die, to a uniform, flat surface, with an exposed area of 0.072 cm^2. The pressure applied was approximately 50 bar for 3-5 min. The sample die was inserted in a cylindrical Teflon rotating disk carrier containing an embedded magnetic stirring bar at its base. The die/stirrer assembly was placed in a flat bottomed glass vial, ready for dissolution analysis.
The dissolution rate was measured in 20 ml of solvent (medium) and the path length of the UV meter was 2 mm. Applied stirring speed during measurement was 100 rpm. Measurements were performed at 20° C.

Data set [3] can be described thus: Solid-state stability at 40° C. and 75% relative humidity. Format: physicochemical. The note with it: 75% RH, 1 to 4 weeks. As for the experimental part: The solid-state stabilities were assessed as follows: HPLC vials, containing approximately 5 mg of material, were placed in the climate chamber at 40° C. and 75% relative humidity. The samples were analyzed by XRPD and HPLC (both purity and chiral) at time points of 1, 2, 3 and 4 weeks. For each week a separate vial was prepared.

Data set [4] can be described thus: Quantitative Solubility Assessment. Format: physicochemical. Conditions: pH 6.8 phosphate buffer (0.05 M) and water, thermodynamic from solid; neutral to basic environment. As for the experimental part:
Quantitative Solubility Assessment were performed on the free acid, the meglumine salt, and the potassium salt. The measurements were carried out in pH 6.8 phosphate buffer (0.05M) and water.
A standard 1.8 ml screw cap vial was charged with the material, each solvent (medium) and a magnetic stirring bar. The vials were subsequently closed and equilibrated at the ambient temperature for 24 h while stirring.
The liquid part was retrieved with a syringe and filtrated (0.5 micron filter); the isolated mother liquors were diluted to two dilutions selected according to the calibration curve. Quantities of the API in the diluted solutions were determined via HPLC analysis (DAD). The calibration curve was obtained from two independently prepared stock solutions of the API in 50% water/50% acetonitrile.

Data set [5] in a line: Slurry experiments (physical stability in solvents). Format: physicochemical. Conditions: ethanol, ethyl acetate, n-heptane; 25° C.; 2 weeks. As for the experimental part: The slurry experiments of the meglumine salt were performed; the materials (15-30 mg) were weighed into 1.8 ml vials, charged with a stirring bar and the solvent (ethanol, ethyl acetate and n-heptane) and the slurries were placed at 25° C. under stirring. After two weeks, the slurries were subject to centrifugation and the liquid was removed with a pipette. The solids were sampled “wet” for XRPD. Subsequently the remaining solids dried under 200 mbar at room temperature for 5 days and all solids were analyzed as “dry” by XRPD.

The nature of data set [6]: Variable humidity XRPD (VH-XRPD). The note with it: 60 to 80% RH, 80 to 10% RH, 10 to 50% RH. In kind it is physicochemical. Here is the method:
(§1) For variable humidity and temperature experiment the ANSYCO HT chamber was used. The material was placed on a fixed sample holder that was mounted inside the chamber. The humidity was applied locally and varied from 10 to 80% (dew point). The temperature variation rate was 10° C./min.
Variable humidity XRPD (VH-XRPD) measurements of the meglumine salt were performed under the humidity of 60 to 80% RH (1st sorption), 80 to 10% RH (desorption) and 10 to 50% (2nd sorption).

A short description of data set [7]: DVS analysis (moisture sorption). Format: physicochemical. Here is the method:
Moisture sorption isotherms of small samples were obtained using a DVS-1 system from Surface Measurement Systems (London, UK) with an accuracy of 0.1 μg. The relative humidity cycled between 45 and 95% RH (sorption), 95 to 0% RH (desorption) and 0 to 45% (sorption) at a constant temperature of 25° C. with a hold time of 60 minutes per step (10% relative humidity step). At the end of the DVS experiment the sample was measured by XRPD.
The XRPD pattern of the sample after DVS measurement was not changed.

Data set [8] in a line: Variable temperature XRPD (VT-XRPD). In kind it is physicochemical. Conditions: 25° C. to 160° C. and back to 25° C. Here is the method:
as §1
Variable temperature XRPD (VT-XRPD) measurements of the meglumine salt were performed under the temperature of 25° C. to 160° C. (heating) and thereafter decreased to 25° C. (cooling).

[9] abbreviates: dog, plasma, single oral dose 5 mg/kg, gelatin capsule.
The mark [10] stands for this setting: dog, plasma, single oral dose 5 mg/kg, gelatin capsule, read-out: Cmax.
The mark [11] stands for this setting: pH 6.8 (0.05 M) phosphate buffer, 20° C., 100 rpm.
Where [12] appears, read: single oral dose 5 mg/kg, gelatin capsule.

Turning to `CC(C)(C)c1cc2c(cc1Cl)C=C(C(=O)O)[C@@H](C(F)(F)F)O2` [Compound A, (S)-6-chloro-7-(1,1-dimethylethyl)-2-trifluoromethyl-2H-1-benzopyran-3-carboxylic acid], in data set [1] (setting [9]), the AUC(0-t) was 287 µg·h/mL. Besides, the Cmax in data set [1] (setting [10]) was found to be 19700 ng/mL. In addition, the “concentration after one hour” value in data set [2] (setting [11]) is 27000 ng/mL; in data set [2] (water, 20° C., 100 rpm) it was “about 1 μg/ml”. For the same compound, the “intrinsic dissolution rate, comparison in words” value (shortened to “intrinsic dissolution rate”) in data set [2] is given as “very limited dissolution”.
Regarding `CC(C)(C)c1cc2c(cc1Cl)C=C(C(=O)[O-])[C@@H](C(F)(F)F)O2.[K+]` [potassium salt, (S)-6-chloro-7-(1,1-dimethylethyl)-2-trifluoromethyl-2H-1-benzopyran-3-carboxylic acid potassium salt], in data set [3], the “chemical purity after solid-state stability test” value was at least 99.9% and the “enantiomeric purity after solid-state stability test” value is at least 99.9%. Further, the AUC(0-t) in data set [1] (setting [9]) was found to be 436 µg·h/mL. Besides, the Cmax in data set [1] (setting [10]) turned out to be 28200 ng/mL. For the same compound, in data set [1], the “time-course of mean plasma concentration in comparison with API” value is “rapidly increased”. Moreover, in data set [2] (setting [11]), the “plateau concentration (dissolution of complete tablet)” value stood at 370 µg/mL. The “time to plateau / complete dissolution of tablet” value in data set [2] (20° C.) is at most 15 min. In addition, the “intrinsic dissolution rate” value in data set [2] (potassium salt) is “much better than the free acid; also recorded: dissolved the fastest in all cases”. For the same compound, the “time to complete dissolution of tablet” value in data set [2] (water, 20° C.) was at most 5 min. Moreover, in data set [2] (water, 20° C., 100 rpm), the “final concentration (complete tablet dissolved)” value stood at 400 µg/mL. Besides, the solubility at 24 h in data set [4] is over 120 mg/mL.
Turning to “(S)-6-chloro-7-(1,1-dimethylethyl)-2-trifluoromethyl-2H-1-benzopyran-3-carboxylic acid meglumine salt”, the “physical stability of wet and dry solids in slurry (XRPD)” value in data set [5] was “physically stable”. In data set [3], the “physical and chemical stability (XRPD, HPLC)” value is “remained physically and chemically stable”. For the same compound, the “time-course of mean plasma concentration in comparison with API” value in data set [1] is listed as “rapidly increased”. Further, in data set [1] (setting [12]), the AUC0-24h is recorded as 381,000 ng · hr/mL and the Cmax is reported as 28,200 ng/mL. In data set [2] (setting [11]), the “plateau concentration (dissolution of complete tablet)” value is reported as “about 250 μg/ml”. In addition, the “time to plateau / complete dissolution of tablet” value in data set [2] (20° C.) is reported as 45 min. In data set [2], the “intrinsic dissolution rate” value is “much better than the free acid”. In data set [2] (water, 20° C., 100 rpm), the “concentration reached in the first 9 min” value was “about 210 μg/ml” and the “final concentration (complete tablet dissolved)” value came to 250 µg/mL. Besides, the “crystal form through sorption-desorption-sorption cycle (VH-XRPD)” value in data set [6] is reported as “remained unchanged”. This compound displayed a maximum water uptake in data set [7] (DVS, at 95% RH, 25° C.) of 2.0%. Besides, the “XRPD pattern of the sample after DVS measurement” value in data set [7] (after DVS cycle) is given as “not changed”. Further, the “crystal form through heating-cooling cycle (VT-XRPD)” value in data set [8] is recorded as “remained unchanged”.
